The results in this text go back to paper PMC5393604, “The fungal natural product azaphilone-9 binds to HuR and inhibits HuR-RNA interaction in vitro” (PLoS ONE, 2017).

Data set [1] has as its target T1, HuR-ARE^Msi1 interaction (full length HuR) (Homo sapiens, UniProt Q15717).
T1 construct: full length HuR (326 residues); made in house; host or cells: E. coli BL21 (DE3)
Put plainly: FP competition assay, HuR-ARE^Msi1 binding. Particulars: 10 nM HuR, 2 nM fluorescein-labeled ARE^Msi1; n = 3; read-out: IC50, inhibition of HuR-ARE^Msi1 interaction. The format is biochemical. On the procedure: Synthetic RNA oligos were from Dharmacon. For FP assay, fluorescein-tagged ARE^Msi1 oligo derived from the 3’-UTR of Musashi RNA-binding protein 1 (Msi1) with the sequence 5’-GCUUUUAUUUAUUUUG-3’ and 11-mer ARE^c-fos RNA oligo (5’-AUUUUUAUUUU-3’) identical to the c-fos RNA sequence used in the crystal structure of HuR-RNA complex were used. For NMR studies, unmodified 11-mer ARE^c-fos RNA oligo [8] was used. Prior to the addition of RNA to the protein, the RNA was heated at 95°C for 5 min followed by immediate cooling on ice for 5 min. […]
FP competition assay for screening and hit validation were carried out as reported previously. […] Measurements were taken using a BioTek Synergy H4 hybrid plate reader (Biotek, Winooski, VT) after incubating for 2 hours at room temperature. […] Percent inhibition was calculated by comparing to the DMSO (0% inhibition) and labeled free RNA only (100% inhibition) controls.
A FP-based high throughput screen on HuR and a 16-mer ARE^Msi1 RNA oligomer from the 3’-UTR of Musashi1 (Msi1) mRNA previously identified novel small molecule inhibitors of HuR-ARE interaction. […] Multi-dose effect was determined to verify the inhibition of HuR-ARE interaction. […]

Data set [2] addresses T2, HuR RRM1/2-ARE^c-fos interaction (Homo sapiens, UniProt Q15717).
T2 construct: HuR RRM1/2 (residues 18–186); made in house; host or cells: E. coli BL21 (DE3)
The data set can be described thus: FP competition assay, HuR RRM1/2-ARE^c-fos binding. Particulars: 50 nM HuR RRM1/2, 2 nM fluorescein-labeled ARE^c-fos; n = 3; read-out: IC50, disruption of HuR RRM1/2-ARE^c-fos binding. The format is biochemical. On the procedure: (§1) Synthetic RNA oligos were from Dharmacon. For FP assay, fluorescein-tagged ARE^Msi1 oligo derived from the 3’-UTR of Musashi RNA-binding protein 1 (Msi1) with the sequence 5’-GCUUUUAUUUAUUUUG-3’ and 11-mer ARE^c-fos RNA oligo (5’-AUUUUUAUUUU-3’) identical to the c-fos RNA sequence used in the crystal structure of HuR-RNA complex were used. For NMR studies, unmodified 11-mer ARE^c-fos RNA oligo [8] was used. Prior to the addition of RNA to the protein, the RNA was heated at 95°C for 5 min followed by immediate cooling on ice for 5 min. The azaphilone derivatives used herein were obtained by semisynthetic diversification of asperbenzaldehyde, which was purified from a strain of Aspergillus nidulans that was engineered to overproduce this compound as described elsewhere. Compounds were dissolved in dimethyl sulfoxide (DMSO) to form 10 mM stock solutions; for NMR studies, deuterated dimethyl sulfoxide (d6-DMSO) was used.
(§2) FP competition assay for screening and hit validation were carried out as reported previously. […] Measurements were taken using a BioTek Synergy H4 hybrid plate reader (Biotek, Winooski, VT) after incubating for 2 hours at room temperature. […] Percent inhibition was calculated by comparing to the DMSO (0% inhibition) and labeled free RNA only (100% inhibition) controls. […]

A further data set deals with Musashi-1 (Msi1) (Homo sapiens, UniProt O43347). The data set can be described thus: Binding to Musashi-1 (unpublished data). Particulars: authors' unpublished data.
Chain of Musashi-1 (Msi1) (O43347 whole entry, species assumed): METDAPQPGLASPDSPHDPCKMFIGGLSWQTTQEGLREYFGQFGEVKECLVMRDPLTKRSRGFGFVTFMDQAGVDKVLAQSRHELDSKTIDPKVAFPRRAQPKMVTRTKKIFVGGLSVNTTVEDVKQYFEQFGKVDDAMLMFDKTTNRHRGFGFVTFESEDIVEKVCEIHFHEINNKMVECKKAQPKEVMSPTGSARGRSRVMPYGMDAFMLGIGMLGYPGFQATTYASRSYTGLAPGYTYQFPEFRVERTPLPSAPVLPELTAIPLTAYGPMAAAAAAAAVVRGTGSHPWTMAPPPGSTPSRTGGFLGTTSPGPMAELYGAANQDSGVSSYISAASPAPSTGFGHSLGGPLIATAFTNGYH
Data set [3] deals with T3, HuR-ARE^c-fos interaction (full length HuR) (Homo sapiens, UniProt Q15717).
T3 construct: full length HuR (326 residues); made in house; host or cells: E. coli BL21 (DE3)
T3 sequence (Q15717 whole entry): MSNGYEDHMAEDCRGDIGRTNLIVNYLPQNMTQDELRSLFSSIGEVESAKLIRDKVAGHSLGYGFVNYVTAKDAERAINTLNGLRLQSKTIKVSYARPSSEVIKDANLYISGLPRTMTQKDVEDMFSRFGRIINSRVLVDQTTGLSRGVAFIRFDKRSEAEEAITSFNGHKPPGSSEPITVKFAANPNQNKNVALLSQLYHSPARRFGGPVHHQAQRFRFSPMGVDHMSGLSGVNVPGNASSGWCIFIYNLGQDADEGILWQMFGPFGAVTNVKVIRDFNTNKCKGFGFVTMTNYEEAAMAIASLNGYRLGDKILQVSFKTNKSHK
The data set can be described thus: FP competition assay, HuR-ARE^c-fos binding. The format is biochemical. Particulars: 10 nM full length HuR, 2 nM fluorescein-labeled ARE^c-fos; n = 3; read-out: IC50, disruption of HuR-ARE^c-fos binding. On the procedure: as §1, §2

For a further data set, the target named is T4, HuR (Homo sapiens, UniProt Q15717).
T4 construct: made in house; host or cells: E. coli BL21 (DE3)
T4 sequence (Q15717 whole entry): as above
Put plainly: Surface plasmon resonance, direct binding to immobilized HuR. Particulars: injected at 0–125 μM, 20°C; n = 2. On the procedure:
Surface plasmon resonance (SPR) datasets were acquired using a BIACORE 3000 (GE Healthcare) at 20°C as described. Briefly, HuR was immobilized into a CM5 chip by amine-coupling chemistry and AZA-9 dissolved in buffer (20 mM HEPES pH 7.4, 150 mM NaCl, 3 mM EDTA, 0.05% p20 (v/v), 5% DMSO (v/v)) was injected into the flow cell at a flow rate of 60 μL/min. The mixtures complexes were allowed to associate for 400 sec and dissociate for 160 sec. SPR sensorgrams were generated using Scrubber2 (BioLogic Software, Australia).
Fig 1 AZA-9 inhibits HuR-ARE RNA interaction and binds directly to HuR. Titration of 2 nM ARE^c-fos and control RNA (a 16-nt fluorescein-labeled RNA oligo with random sequence) with (A) HuR and (B) HuR RRM1/2 (n = 3). (C) Dose-response curve of AZA-9 disrupting HuR-ARE^c-fos binding in FP assay using 10 nM HuR and 2 nM fluorescein-labeled ARE^c-fos (n = 3). (D) Dose-response curve of AZA-9 disrupting HuR RRM1/2-ARE^c-fos binding in FP assay using 50 nM HuR RRM1/2 and 2 nM fluorescein-labeled ARE^c-fos (n = 3). (E) SPR sensorgrams of AZA-9 injected at increasing concentrations of 0–125 μM into a flow cell containing immobilized HuR (n = 2). Structure of AZA-9 is shown on the right. The following were the negative controls used–random RNA in (A) and (B); and AZA-15 in (C) and (D). […]

Data set [4] concerns the target T5, HuR RRM1/2 (Homo sapiens, UniProt Q15717).
T5 construct: HuR RRM1/2 (residues 18–186); made in house; host or cells: E. coli BL21 (DE3)
The data set can be described thus: NMR titration of 15N/ILV-labeled HuR RRM1/2. The format is binding. Particulars: equimolar concentration (1:1), 50 μM 15N HuR RRM1/2. On the procedure: Proteins for NMR were dissolved in NMR buffer (100 mM NaCl, 10 mM NaPO4 pH 6.8, 10% D2O). ^15N NMR data were acquired using Bruker Avance 800 MHz spectrometer with a TCI cryoprobe. ILV ^13C NMR data were acquired using on a Bruker Avance III 600 MHz spectrometer. NMR data were acquired at 25°C, processed using NMRPipe and analyzed using NMRView. For ^15N and ILV chemical shift mapping, 80 μM ^15N/ILV-labeled HuR RRM1/2 was titrated with unlabeled ARE^c-fos RNA at increasing molar ratios of 1:0, 1:0.5, 1:1, and 1:1.7. AZA-9 was titrated at 1:1 and 1:2 molar ratios into 50 μM ^15N/ ILV-labeled HuR RRM1/2 in NMR buffer with 10% d6-DMSO. […] The ^15N titrations were monitored by acquiring 2D ^1H-^15N TROSY spectra, and the ILV titrations were monitored by acquiring 2D ^1H-^13C HSQC spectra. The published backbone amide assignments of HuR RRM1/2 (BMRB entry 26628) and the ILV assignments made herein were used in the NMR analysis.
The interaction of AZA-9 with HuR RRM1/2 was characterized by NMR methods. […] Specifically, residue R97 in the inter-domain linker region (whose intensity reduced by ~50% at equimolar concentration of AZA-9, Fig 4C) has been previously reported as important for RNA binding, RNA recognition and high affinity HuR-RNA complex formation. […]

The target of data set [5] is T6, HuR full length (UniProt Q15717 1-326). The data set can be described thus: fluorescence polarization; 2 nM RNA; FP: room temperature, 2 h incubation in the competition assay, buffer not given (as in cited ref 22); NMR: 100 mM NaCl, 10 mM sodium phosphate pH 6.8, 10% D2O. Particulars: protein: recombinant; single strand. On the technique in general: Polarisation of emitted light reports the rotation of a fluorescent probe.
T6 sequence (Q15717 whole entry): as above

The target in data set [6] is HuR RRM1/2 (UniProt Q15717 18-186). The description is as above. Particulars: protein: recombinant; tags: N-terminal His6 (retained); single strand.
Chain of HuR RRM1/2 (UniProt Q15717 18-186) (Q15717 18-186): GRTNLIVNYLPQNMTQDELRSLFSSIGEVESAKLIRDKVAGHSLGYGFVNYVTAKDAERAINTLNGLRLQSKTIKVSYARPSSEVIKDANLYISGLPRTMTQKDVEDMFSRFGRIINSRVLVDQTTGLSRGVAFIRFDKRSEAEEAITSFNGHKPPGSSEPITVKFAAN
Data set [7] concerns the target T6, HuR full length. The data set can be described thus: fluorescence polarization; 10 nM HuR, 2 nM RNA; complex disrupted by AZA-9 (compound IC50 1.1 uM); FP: room temperature, 2 h incubation in the competition assay, buffer not given (as in cited ref 22); NMR: 100 mM NaCl, 10 mM sodium phosphate pH 6.8, 10% D2O. Particulars: protein: recombinant; single strand.

Several values for one entry are separate records, joined by “and”; a condition that tells them apart may be missing. Equal entries are not always repeated.

T1 sequence (Q15717 whole entry): as the sequence (Q15717 whole entry) above
T5 sequence (Q15717 18-186): as the sequence (Q15717 18-186) above
T2 sequence (Q15717 18-186): as above

For `CC[C@H](C)/C=C(C)/C=C/C1=CC2=C(Br)C(=O)C(C)(OC(C)=O)C(=O)C2=CO1` (stereo partly drawn) [AZA-9, azaphilone-9], the IC50 in data set [1] is 1100 nM; in [2], 7400 nM; in data set [3], ~1200 nM and 1200 nM. Moreover, on Musashi-1 (Msi1), the “binding to Musashi-1 (in words)” value is recorded as “also binds”. In addition, the “SPR optical response on immobilized HuR (in words)” value at HuR is reported as “increased optical response in a dose-dependent manner”. In addition, the “reduction of NMR peak intensity of residue R97” value on HuR RRM1/2 [4] is listed as ~ 50%.
With AUUUUUAUUUU (ssRNA) [AREc-fos (fluorescein)], the results for the Kd with HuR full length [5] and with HuR RRM1/2 [6] were 3.3 nM and 22.2 nM, respectively.
Regarding GCUUUUAUUUAUUUUG (ssRNA) [AREMsi1 (fluorescein)], the binding result with HuR full length [7] was “binds”.

Usually Kd stands for a measure of binding affinity in units of concentration.
